Paper PMC7371863, “Intracellular interplay between cholecystokinin and leptin signalling for satiety control in rats” (Scientific Reports, 2020)

Experiments:
[1] = tested on: CCK-1 and CCK-2 receptors (C6 cells); experiment: Ca2+ imaging (Fura-2), CCK-8s response in C6 cells; type: cell-based, rat; settings: CCK-8s 10 nM; n = 103/five dishes; Fura-2, 34°C, BSS pH 7.4
Experimental: (§1) Rat C6 glioma cells were cultured in Dulbecco’s Modified Eagle Medium/F12 (DMEM/F12) supplemented with 10% FBS, sodium bicarbonate (1.2 g/L), and 1% penicillin/streptomycin antibiotics at 37 °C in 5% CO2. The full-length mouse leptin receptor (ObRb) in pcDNA3.1 vector was kindly provided by Dr. Christian Bjørbaek (BIDMC, Harvard Medical School, Boston, MA, USA) and transfected using Lipofectamine 2000. Subsequently, the cells were cultured in medium containing 500 μg/mL G418 for cell selection.
(§2) C6 cells plated on 35 mm plastic dishes were gently rinsed with buffered salt solution (BSS) consisting of 130 mM NaCl, 5.4 mM KCl, 2 mM CaCl2, 1 mM MgCl2, 5.5 mM D-glucose, and 10 mM HEPES/NaOH (pH 7.4), and incubated in BSS supplemented with 6 µM Fura-2 AM (Dojindo Laboratories, Kumamoto, Japan) for 30 min in a CO2 incubator. Prior to photometry, the cells were rinsed again with BSS, incubated at 37°C for 15 min, and then continuously perfused with BSS at 34°C at a flow rate of 3 mL/min. Fluorescence images were obtained using an upright microscope (Axioplan2; Carl Zeiss, Thornwood, NY, USA) with a water-immersion objective (Achroplan×20 NA0.5w; Carl Zeiss). The wavelength of the excitation UV light (340 nm or 380 nm pulse; 250 msec) was switched using a filter wheel (Lambda 10-2; Sutter Instruments, Novato, CA, USA). […] The background fluorescence was also subtracted using the software. […]

[2] = tested on: primary cultures of rat nodose ganglion neurons; settings: CCK-8s treatment, co-stimulation with leptin; cited from earlier work
Excerpt: An important observation in C6 models, other than intracellular Ca^2+ signalling, is the reduction in leptin-induced nuclear pSTAT3 accumulation by co-stimulation with CCK-8s. The level of pSTAT3 following co-stimulation with CCK-8s and leptin has been analyzed in primary cultures of rat nodose ganglion neurons[53],[54].

wild-type C6 cells = experiment: Ca2+ imaging (Fura-2), leptin and CCK-8s signalling interaction in wild-type C6 cells; type: cell-based, rat; settings: leptin 100 nM
Experimental: as §1
C6 cells plated on 35 mm plastic dishes were gently rinsed with buffered salt solution (BSS) consisting of 130 mM NaCl, 5.4 mM KCl, 2 mM CaCl2, 1 mM MgCl2, 5.5 mM D-glucose, and 10 mM HEPES/NaOH (pH 7.4), and incubated in BSS supplemented with 6 µM Fura-2 AM (Dojindo Laboratories, Kumamoto, Japan) for 30 min in a CO2 incubator. Prior to photometry, the cells were rinsed again with BSS, incubated at 37°C for 15 min, and then continuously perfused with BSS at 34°C at a flow rate of 3 mL/min. Fluorescence images were obtained using an upright microscope (Axioplan2; Carl Zeiss, Thornwood, NY, USA) with a water-immersion objective (Achroplan×20 NA0.5w; Carl Zeiss). The wavelength of the excitation UV light (340 nm or 380 nm pulse; 250 msec) was switched using a filter wheel (Lambda 10-2; Sutter Instruments, Novato, CA, USA). The UV light was generated by a full spectrum 300W Xenon bulb (Lambda LS; Sutter Instruments), conducted to the microscope through a liquid light guide. The pair of fluorescent images was processed using a band-pass filter (485–515 nm) and exposed to a multiple format cooled CCD camera (CoolSnap-fx; Photometrics, Tucson, AZ, USA) at 6-sec intervals. The filter wheel and the CCD camera were controlled using digital imaging software (MetaFluor ver. 6.2; Japan Molecular Devices, Tokyo, Japan). The background fluorescence was also subtracted using the software.
During image acquisition, leptin (PeproTech, Rocky Hill, NJ, USA), CCK-4 (Peptide Institute, Inc., Osaka, Japan), CCK-8s (Sigma-Aldrich, St. Louis, MO, USA), AG490 (Calbiochem, San Diego, CA), LY294002 (Calbiochem), LY225910 (R&D Systems, Minneapolis, MN, USA), LGM (LKT Laboratories Inc., St. Paul, MN, USA), and ATP (Sigma-Aldrich) were applied by switching the perfusate. The magnitude of Ca^2+ responses was determined by peak area analysis using Origin 5.0 software (OriginLab, Northampton, MA, USA).

[3] = tested on: C6-ObRb cells (mouse leptin receptor ObRb); experiment: Ca2+ imaging (Fura-2) in C6 cells overexpressing mouse ObRb (C6-ObRb); type: cell-based, rat C6 cells
Experimental: as §1, §2

[4] = tested on: nucleus tractus solitarius; settings: fourth ventricular injection of leptin; cited from earlier work
Excerpt: (§3) Also, the effect of CCK on satiety control is attenuated in Zucker fa/fa rats lacking functional leptin receptors. In addition, other evidence implicated that leptin-mediated satiety-controlling systems may strongly interact with CCK systems[18],[50]–[54]. For example, c-Fos expression in oxytocin neurons in the hypothalamic paraventricular nucleus is elevated by leptin administration, and these neurons have axons tha ...

[5] = tested on: oxytocin neurons in the hypothalamic paraventricular nucleus; settings: leptin administration; cited from earlier work
Excerpt: as §3

[6] = tested on: cerebellar granule cell cultures; settings: via MAPK pathways; cited from earlier work
Excerpt: (§4) A product of the obese gene, leptin, is a peptide hormone secreted from white adipocyte tissue, also known as a satiety-controller[31]–[33]. […] Splice variants (ObRa–ObRe) have been identified for leptin receptors and only the full-length isoform (ObRb) contains the intracellular motifs required for the initiation of intracellular signalling. ObRb is a single-transmembrane receptor that interacts with diverse signalling molecules[ ...

dissociated ARC neurons = settings: cited from earlier work
Excerpt: as §4

[7] = tested on: primary cultures of ventromedial hypothalamus (VMN and ARC neurons); settings: depending on cell populations; cited from earlier work
Excerpt: as §4

[8] = tested on: cultured vagal afferent neurons; settings: cited from earlier work
[9] = tested on: porcine adrenal medullary chromaffin cells; settings: cited from earlier work
megakaryoblast cells = settings: co-stimulation with leptin; cited from earlier work
Excerpt: It was previously shown that ADP-induced Ca^2+ mobilization, presumably via Gq-coupled P2Y receptor, was enhanced by co-stimulation with leptin in megakaryoblast cells. Since leptin could phosphorylate the tyrosine residue of Gqα protein by JAK2 (i.e., in AG490-dependent manner) in these cells, leptin could facilitate CCK receptor signalling similarly in C6 cells. […] Thus, further downstream signalling might also involve the activation of p ...

[10] = tested on: meal frequency / meal size; settings: leptin; cited from earlier work
Excerpt: Although CCK and leptin have been commonly described as satiety controlling peptides, their differential roles have also been highlighted. […] Among the wide variety of intracellular signalling machineries linked to ObRb, it is still uncertain which pathway(s) is/are linked to what type of satiety controls. pSTAT3-ir is used as a genera ...

Row | Substance | C6 cells displaying Ca2+ transients on re-stimulation [1] [%] | total pSTAT3 [2] | Ca2+ transients by leptin treatment alone, wild-type C6 cells (wild-type C6 cells; 5 min or 500 nM, 5 min, n = 185/eight dishes) | amplification in the magnitude of CCK-8s-induced Ca2+ mobilization (wild-type C6 cells; 5 min pre-treatment, CCK-8s 10 nM, n = 115/five dishes) | magnitude of Ca2+ response by co-stimulation, C6-ObRb versus wild-type ([3]; leptin 100 nM and CCK-8s 10 nM, n = 84/four dishes, Student's t-test) | Ca2+ transients by leptin treatment alone, C6-ObRb ([3]; leptin 100 nM, 5 min or 500 nM, 5 min, n = 190/11 dishes) | CCK-induced satiety response [4] | c-Fos expression in the nucleus tractus solitarius [4] | c-Fos expression in oxytocin neurons [5] | action on N-methyl-D-aspartate-induced Ca2+ influx [6] | ghrelin-induced Ca2+ elevation (dissociated ARC neurons) | intrinsic Ca2+ oscillations [7] | cytosolic Ca2+ after leptin stimulation [8] | cytosolic Ca2+ after leptin stimulation [9] | ADP-induced Ca2+ mobilization (megakaryoblast cells) | meal size and meal frequency [10]
1 | CCK-8s [reference compound] | 32 | significant increase in pSTAT3 | – | – | – | – | – | – | – | – | – | – | – | – | – | –
2 | leptin: peptide hormone secreted from white adipocyte tissue, product of the obese gene; PeproTech Cat#450-31 | – | – | failed to evoke Ca^2+ transients | ~ 5 times | not significantly different from that in wild-type C6 cells | failed to evoke Ca^2+ transients | enhanced the CCK-induced satiety response | failed to increase c-Fos expression | elevated | excitatory actions | inhibited | increased or decreased intrinsic Ca^2+ oscillations | cytosolic Ca^2+ increase | cytosolic Ca^2+ increase | enhanced | reduces meal size but does not alter meal frequency
